# Test results from ChEMBL document CHEMBL3576852, “Switch in Site of Inhibition: A Strategy for Structure-Based Discovery of Human Topoisomerase IIα Catalytic Inhibitors” (ACS Med Chem Lett, 2015).
# Activity calls are given as the source filed them. The rule behind the calls is not given here.
# How the values were obtained:
# [1] = molecular target: T1, DNA topoisomerase 2-alpha (Homo sapiens, UniProt P11388); test: Inhibition of human topoisomerase 2alpha assessed as reduction in enzyme-mediated relaxation of negatively supercoiled pRYG DNA at 100 uM incubated for 30 mins by ethidium bromide staining based gel electrophoresis method
# T1 sequence (P11388 whole entry): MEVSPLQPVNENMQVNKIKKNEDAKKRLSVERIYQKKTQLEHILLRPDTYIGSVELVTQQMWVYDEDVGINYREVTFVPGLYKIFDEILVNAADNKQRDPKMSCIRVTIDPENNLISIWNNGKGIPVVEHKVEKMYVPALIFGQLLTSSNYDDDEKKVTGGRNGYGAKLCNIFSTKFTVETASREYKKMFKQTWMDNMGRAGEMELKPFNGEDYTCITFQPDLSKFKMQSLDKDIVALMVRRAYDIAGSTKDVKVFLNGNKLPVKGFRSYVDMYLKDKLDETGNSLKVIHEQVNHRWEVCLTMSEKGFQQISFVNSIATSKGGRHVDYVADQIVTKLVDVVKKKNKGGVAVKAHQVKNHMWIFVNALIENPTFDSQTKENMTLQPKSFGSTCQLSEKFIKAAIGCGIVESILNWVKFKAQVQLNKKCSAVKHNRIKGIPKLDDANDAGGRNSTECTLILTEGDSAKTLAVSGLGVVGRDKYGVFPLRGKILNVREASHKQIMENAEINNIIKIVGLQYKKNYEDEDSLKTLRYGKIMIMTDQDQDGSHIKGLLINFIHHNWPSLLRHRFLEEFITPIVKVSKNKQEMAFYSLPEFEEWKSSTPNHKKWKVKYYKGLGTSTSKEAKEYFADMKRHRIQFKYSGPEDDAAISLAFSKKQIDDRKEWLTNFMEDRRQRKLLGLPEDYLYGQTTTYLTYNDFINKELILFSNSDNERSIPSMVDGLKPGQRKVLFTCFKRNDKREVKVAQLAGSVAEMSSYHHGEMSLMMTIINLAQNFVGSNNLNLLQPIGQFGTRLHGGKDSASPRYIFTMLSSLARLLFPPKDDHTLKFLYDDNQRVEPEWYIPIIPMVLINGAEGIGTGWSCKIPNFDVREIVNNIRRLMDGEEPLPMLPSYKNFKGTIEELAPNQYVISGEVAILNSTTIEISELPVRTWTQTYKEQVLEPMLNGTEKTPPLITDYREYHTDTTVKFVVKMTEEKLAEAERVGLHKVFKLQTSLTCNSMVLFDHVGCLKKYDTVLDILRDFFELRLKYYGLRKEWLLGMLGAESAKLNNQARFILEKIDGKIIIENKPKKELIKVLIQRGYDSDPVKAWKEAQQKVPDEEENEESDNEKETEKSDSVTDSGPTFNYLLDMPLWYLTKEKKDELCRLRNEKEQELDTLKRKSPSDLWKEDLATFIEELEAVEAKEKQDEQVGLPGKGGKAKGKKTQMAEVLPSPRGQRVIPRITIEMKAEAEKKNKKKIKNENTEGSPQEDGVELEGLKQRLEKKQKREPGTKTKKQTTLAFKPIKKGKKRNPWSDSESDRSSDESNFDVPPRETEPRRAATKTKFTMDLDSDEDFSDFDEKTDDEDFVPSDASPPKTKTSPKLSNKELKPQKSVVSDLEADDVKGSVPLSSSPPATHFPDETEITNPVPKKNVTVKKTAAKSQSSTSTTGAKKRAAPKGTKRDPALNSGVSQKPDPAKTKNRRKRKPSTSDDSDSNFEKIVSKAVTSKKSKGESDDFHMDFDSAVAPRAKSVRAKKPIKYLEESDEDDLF
# [2] = molecular target: T1, DNA topoisomerase 2-alpha; test: Poisoning activity against human topoisomerase 2alpha assessed as induction of linear DNA formation at 100 uM incubated for 20 mins using small circular supercoiled pHOT DNA substrate by ethidium bromide staining based gel electrophoresis method
# [3] = molecular target: T2, DNA topoisomerase 1 (Homo sapiens) (UniProt P11387); test: Inhibition of human topoisomerase-1 assessed as reduction in enzyme-mediated relaxation of negatively supercoiled pRYG DNA at 100 uM incubated for 30 mins by ethidium bromide staining based gel electrophoresis method
# T2 sequence (whole entry): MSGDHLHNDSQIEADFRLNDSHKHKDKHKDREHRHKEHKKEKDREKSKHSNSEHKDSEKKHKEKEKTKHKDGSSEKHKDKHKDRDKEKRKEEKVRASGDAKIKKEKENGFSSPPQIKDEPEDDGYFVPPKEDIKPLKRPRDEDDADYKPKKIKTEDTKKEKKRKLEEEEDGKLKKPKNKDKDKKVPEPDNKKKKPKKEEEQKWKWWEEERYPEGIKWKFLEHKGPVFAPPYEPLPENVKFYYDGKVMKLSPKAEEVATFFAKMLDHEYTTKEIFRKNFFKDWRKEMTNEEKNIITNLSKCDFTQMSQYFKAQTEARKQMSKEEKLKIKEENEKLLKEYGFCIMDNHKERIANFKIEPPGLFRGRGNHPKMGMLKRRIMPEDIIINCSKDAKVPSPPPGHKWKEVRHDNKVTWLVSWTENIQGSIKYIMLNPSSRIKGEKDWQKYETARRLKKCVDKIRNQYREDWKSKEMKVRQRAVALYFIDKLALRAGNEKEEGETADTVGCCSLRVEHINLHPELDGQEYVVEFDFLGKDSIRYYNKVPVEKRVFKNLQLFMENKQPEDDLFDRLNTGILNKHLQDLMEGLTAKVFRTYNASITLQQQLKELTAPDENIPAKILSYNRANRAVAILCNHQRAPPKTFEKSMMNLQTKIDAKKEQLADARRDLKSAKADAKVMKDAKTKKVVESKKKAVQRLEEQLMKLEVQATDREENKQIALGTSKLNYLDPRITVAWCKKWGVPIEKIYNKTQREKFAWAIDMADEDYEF
# [4] = molecular target: T1, DNA topoisomerase 2-alpha; test: Inhibition of human topoisomerase 2alpha assessed as reduction in enzyme-mediated kinetoplast DNA decatenation at 100 uM incubated for 30 mins by agarose gel electrophoresis method
# [5] = test system: HEK293; test: Cytotoxicity against HEK293 cells assessed as reduction in cell viability after 48 hrs by MTT assay; format: functional; details: Homo sapiens; for CC50: HEK293, 48 h, read-out: LC50 (the source's name)
# [6] = Cytotoxicity against African green monkey Vero cells assessed as cell viability at 75 uM after 48 hrs by MTT assay; format: cell-based; details: chlorocebus sabaeus, read-out: Activity
# [7] = molecular target: T1, DNA topoisomerase 2-alpha; test: Inhibition of etoposide-enhanced human topoisomerase 2alpha-mediated DNA cleavage at 100 to 400 uM incubated for 2 mins in presence of 100 uM etoposide by ethidium bromide staining based gel electrophoresis method
# [8] = molecular target: T1, DNA topoisomerase 2-alpha; test: Inhibition of human topoisomerase 2alpha ATPase activity assessed as inorganic phosphate release at 100 uM using pUC19 DNA substrate by malachite green reagent based ATPase inhibition assay
# [9] = test system: Nucleic Acid; test: Induction of DNA intercalation of Escherichia coli pUC19 DNA at 100 uM by ethidium bromide staining based agarose gel electrophoresis method; format: nucleic-acid assay
# [10] = Binding affinity to TOP-FLASH TCF/LEF transcription factor DNA (unknown origin) at 5 to 25 uM incubated for 2 hrs by UV-visible spectrophotometry
# [11] = molecular target: T1, DNA topoisomerase 2-alpha; test: Inhibition of topoisomerase 2alpha in HEK293 cells at 5 to 15 uM incubated for 48 hrs using TOP-FLASH plasmid substrate by ethidium bromide staining based agarose gel electrophoresis method; format: cell-based
# [12] = molecular target: T1, DNA topoisomerase 2-alpha; test: Inhibition of etoposide-enhanced human topoisomerase 2alpha-mediated DNA cleavage at 100 to 400 uM pre-incubated for 2 mins before 100 uM etoposide addition by ethidium bromide staining based gel electrophoresis method
# [13] = molecular target: T1, DNA topoisomerase 2-alpha; test: Inhibition of etoposide-enhanced human topoisomerase 2alpha-mediated DNA cleavage at 100 to 400 uM incubated for 2 mins with simultaneous addition of 100 uM etoposide by ethidium bromide staining based gel electrophoresis method
# [14] = molecular target: T1, DNA topoisomerase 2-alpha; test: Inhibition of human topoisomerase 2alpha assessed as reduction in enzyme-mediated kinetoplast DNA decatenation incubated for 30 mins by agarose gel electrophoresis method
# [15] = molecular target: T1, DNA topoisomerase 2-alpha; test: Inhibition of etoposide-enhanced human topoisomerase 2alpha-mediated DNA cleavage at 100 to 400 uM pre-incubated for 2 mins with 100 uM etoposide followed by compound addition by ethidium bromide staining based gel electrophoresis method
# [16] = molecular target: T1, DNA topoisomerase 2-alpha; details: HEK293, 45 uM
# Description: Inhibition of topoisomerase 2alpha in HEK293 cells at 45 uM incubated for 48 hrs using TOP-FLASH plasmid substrate by ethidium bromide staining based agarose gel electrophoresis method
# [17] = Cytotoxicity against African green monkey Vero cells assessed as reduction in cell viability after 48 hrs by MTT assay; format: cell-based; details: chlorocebus sabaeus, read-out: LC50
SMILES,inhibition [1],Activity [2],inhibition [3],inhibition [4],Activity [5],CC50 [5],"viability at 48 h, 75 µM [6]",other results
CC(C)(C)Nc1c(-c2ccc(Cl)cc2)nc2ccc(-c3ccc(F)cc3)cn12,Active,inactive,inactive,Active,Dose-dependent effect,8 µM,> 30%,
CC(C)(C)Nc1c(-c2ccc(-c3ccc(F)cc3)cc2)nc2cnccn12,inactive,,,inactive,,,,
CC(C)(C)Nc1c(-c2ccc(C(=O)O)cc2)nc2ccccn12,,,,,,,,inhibition [7]: inactive
COc1ccc(-c2nc3ccc(-c4ccccc4)cn3c2NC(C)(C)C)cc1,Active,inactive,inactive,Active,Dose-dependent effect,13 µM,> 30%,
COc1ccc(-c2ccc(-c3nc4ccccn4c3NC(C)(C)C)cc2)cc1,inactive,,,inactive,,,,
CC(C)(C)Nc1c(-c2ccc(Cl)cc2)nc2ccc(-c3ccccc3)cn12,Active,inactive,inactive,Active,Dose-dependent effect,10 µM,> 30%,inhibition [8]: Active; Activity [9]: inactive; Activity [10]: inactive; inhibition [11]: Active; inhibition [12]: Dose-dependent effect; inhibition [13]: Active; IC50 [14]: 55.4 µM; inhibition [15]: Active
COc1cc([C@@H]2c3cc4c(cc3[C@@H](O[C@@H]3O[C@@H]5CO[C@@H](C)O[C@H]5[C@H](O)[C@H]3O)[C@H]3COC(=O)[C@H]23)OCO4)cc(OC)c1O [ETOPOSIDE],,Active,,,,55 µM,,inhibition [16]: Active; CC50 at 48 h [17]: 75 µM
CC(=O)c1ccc(-c2ccc(-c3nc4cnccn4c3NC(C)(C)C)cc2)cc1,Active,,,Active,,,,
CC(C)(C)Nc1c(-c2ccc(-c3ccccc3)cc2)nc2cnccn12,Active,,,Active,,,,
Cc1ccc(-c2ccc3nc(-c4ccc(Cl)cc4)c(NC(C)(C)C)n3c2)cc1,Active,inactive,inactive,Active,Dose-dependent effect,15 µM,> 30%,
CC(C)(C)Nc1c(-c2ccc(-c3ccc(Cl)cc3)cc2)nc2ccccn12,inactive,,,inactive,,,,
COc1ccc(-c2ccc3nc(-c4ccc(Cl)cc4)c(NC(C)(C)C)n3c2)cc1,Active,inactive,inactive,Active,Dose-dependent effect,10 µM,> 30%,
